In patent US8273775B2, “Non-steroidal brassinosteroid mimetic” (priority 2006, dated 2012):

Tested on: gene expression in Col-0 seedling shoots
Experiment: Microarray analysis (ATH1 Affymetrix) after BL or abrasin treatment
Assay type: in vivo, Arabidopsis
Experimental: FIG. 14: Clustering of gene expression profiles by QT-clust analysis. Clusters illustrating the major patterns of the data sets. Points: BIK-30: 30 μM abrasin 30 min; BL-30: 1 μM brassinolide 30 min; DMSO-30: control DMSO 30 min; BIK-120: 30 μM abrasin 120 min; BL-120: 1 μM brassinolide 120 min; DMSO-120: control DMSO 120 min.
Col-0 seeds were germinated vertically on ½ MS medium for 7 days under 16 h light/8 h dark cycles. The seedlings were overlaid with liquid ½ MS medium containing 1 μM brassinolide (BL, Fuji Chemical Industries, Ltd., Toyama, Japan), 30 μM abrasin (BIK, ChemBridge Corporation) and DMSO and treated for 30 and 120 min. The shoot parts were collected for RNA isolation. All sampling points were performed in three independent experiments. RNA was extracted using RNeasy kit (Qiagene). […] total RNA per array was used to hybridise the ATH1 Affymetrix Arabidopsis arrays according to standard procedure. The overrepresentation analyses were performed using BiNGO software (Maere et al., 2005).
We performed a microarray analysis using the Arabidopsis whole genome chip (Affymetix) to determine whether abrasin activated the expression of BR-inducible genes at transcriptional level. Wild-type Col-0 seedlings were exposed to 1 μM BL, 30 μM ABRASIN and DMSO (mock-treatment) for two time points (30 min and 120 min) and the shoot parts were collected for RNA isolation. The analysis of the variance of the normalized gene expression data took in account the variability parameters affecting the expression level: type of hormone treatment, duration of treatment and the interaction between these two.

## CC(C)[C@H](C)[C@@H](O)[C@H](O)[C@@H](C)[C@H]1CC[C@H]2[C@@H]3COC(=O)[C@H]4C[C@H](O)[C@H](O)C[C@]4(C)[C@H]3CC[C@]12C [BL, brassinolide, reference compound]
30 min, 265877_at, Cluster 6
  Fold-change of gene AT2G42380 (bZIP transcription factor family protein): 0.81
30 min, 266124_at, Cluster 8
  Fold-change of gene AT2G45080 (cyclin family protein): 0.84
120 min
  Fold-change AT1G04330 expressed protein: 1.30
  Fold-change AT1G05470 endonuclease/exonuclease/phosphatase family protein: 1.05
  Fold-change AT1G06520 Encodes a membrane associated mitochondrial localized protein: 3.11
  Fold-change AT1G06570 4-hydroxyphenylpyruvate dioxygenase (HPD): 0.27
  Fold-change AT1G10550 xyloglucan:xyloglucosyl transferase: 2.19
  Fold-change AT1G12710 F-box family protein: 2.11
  Fold-change AT1G12750 rhomboid family protein: 0.78
  Fold-change AT1G14130 2-oxoglutarate-dependent dioxygenase: 1.31
  Fold-change AT1G14700 purple acid phosphatase: 0.59
  Fold-change AT1G16640 transcriptional factor B3 family protein: 0.95
  Fold-change AT1G17230 leucine-rich repeat family protein: 0.38
  Fold-change AT1G18020; AT1G17990 [AT1G18020, 12-oxophytodienoate reductase,: 0.50
  Fold-change AT1G19320 pathogenesis-related thaumatin family protein: 0.38
  Fold-change AT1G20350 mitochondrial import inner membrane translocase subunit: 1.08
  Fold-change AT1G21050 expressed protein: 0.22
  Fold-change AT1G21760 F-box family protein: 0.60
  Fold-change AT1G22360 UDP-glucoronosyl/UDP-glucosyl transferase family protein: 0.29
  Fold-change AT1G23080 auxin efflux carrier protein (PIN7): 0.48
  Fold-change AT1G26800 zinc finger (C3HC4-type RING finger) family protein,: 6.09
  Fold-change AT1G27730 zinc finger (C2H2 type) family protein: 0.71
  Fold-change AT1G28130 encodes an IAA-amido synthase: 0.28
  Fold-change AT1G28190 expressed protein: 0.58
  Fold-change AT1G28480 glutaredoxin family protein: 1.38
  Fold-change AT1G31040 zinc-binding protein-related: 1.12
  Fold-change AT1G31310 hydroxyproline-rich glycoprotein family protein: 0.74
  Fold-change AT1G31770 ABC transporter family protein: 0.64
  Fold-change AT1G32190 expressed protein: 0.11
  Fold-change AT1G32690 expressed protein: 0.48
  Fold-change AT1G36940 expressed protein: 0.38
  Fold-change AT1G49780 U-box domain-containing protein: 0.28
  Fold-change AT1G53870; AT1G53890 [AT1G53870, expressed protein: 0.77
  Fold-change AT1G54050 17.4 kDa class III heat shock protein (HSP17.4-CIII): 3.58
  Fold-change AT1G54200 expressed protein: 2.06
  Fold-change AT1G55920 serine O-acetyltransferase: 1.01
  Fold-change AT1G57560 myb family transcription factor (MYB50): 2.45
  Fold-change AT1G59590 expressed protein: 1.03
  Fold-change AT1G59660 nucleoporin family proteinmily: 3.15
  Fold-change AT1G62300 WRKY family transcription factor: 0.21
  Fold-change AT1G63050 membrane bound O-acyl transferase (MBOAT) family protein: 0.40
  Fold-change AT1G66160 U-box domain-containing protein,: 1.22
  Fold-change AT1G66890 expressed protein: 0.34
  Fold-change AT1G68330 expressed protein: 1.74
  Fold-change AT1G68810 basic helix-loop-helix (bHLH) family protein: 0.83
  Fold-change AT1G69160 expressed protein: 0.59
  Fold-change AT1G70990 proline-rich family protein: 2.22
  Fold-change AT1G71030 Encodes a putative myb family transcription factor: 0.13
  Fold-change AT1G72060 expressed protein: 0.92
  Fold-change AT1G72180 leucine-rich repeat transmembrane protein kinase: 0.22
  Fold-change AT1G72800 nuM1-related, contains: 2.85
  Fold-change AT1G75270 dehydroascorbate reductase: 1.66
  Fold-change AT1G75500 nodulin MtN21 family protein: 0.56
  Fold-change AT1G76240 expressed protein,: 0.16
  Fold-change AT1G76410 zinc finger (C3HC4-type RING finger): 0.43
  Fold-change AT1G79110 expressed protein: 0.77
  Fold-change AT1G79630 protein phosphatase 2C family protein: 0.37
  Fold-change AT1G80440 kelch repeat-containing F-box family protein: 2.93
  Fold-change AT2G01300 expressed protein: 4.83
  Fold-change AT2G01990 expressed protein,: 1.06
  Fold-change AT2G04240 zinc finger (C3HC4-type RING finger) family protein: 2.81
  Fold-change AT2G05540 glycine-rich protein: 0.46
  Fold-change AT2G12290; AT4G19700 [AT2G12290, expressed protein]; [AT4G19700, expressed protein]: 0.55
  Fold-change AT2G18010 auxin-responsive family protein (SAUR10): 9.13
  Fold-change AT2G19800 expressed protein: 1.78
  Fold-change AT2G22860 phytosulfokines 2 (PSK2): 0.44
  Fold-change AT2G23180 cytochrome P450, putative: 0.42
  Fold-change AT2G23320 WRKY family transcription factor: 0.50
  Fold-change AT2G26530 expressed protein: 0.86
  Fold-change AT2G26710 cytochrome p450 family (BAS1): 5.42
  Fold-change AT2G28510 Dof-type zinc finger domain-containing protein: 0.51
  Fold-change AT2G29340 short-chain dehydrogenase/reductase (SDR) family protein: 1.29
  Fold-change AT2G29990 pyridine nucleotide-disulphide oxidoreductase family protein: 0.48
  Fold-change AT2G30070 potassium transporter (KUP1): 0.38
  Fold-change AT2G31230 encodes a member of the ERF (ethylene response factor): 2.74
  Fold-change AT2G34650 protein kinase PINOID (PID): 3.26
  Fold-change AT2G36220 expressed protein: 2.62
  Fold-change AT2G37590 Dof-type zinc finger domain-containing protein: 1.19
  Fold-change AT2G38470 WRKY family transcription factor: 0.57
  Fold-change AT2G39710 aspartyl protease family protein: 1.00
  Fold-change AT2G40340; AT2G40350 [AT2G40340, encodes a member of the DREB subfamily A-2 of ERF/AP2: 1.68
  Fold-change AT2G41250 haloacid dehalogenase-like hydrolase family protein: 0.44
  Fold-change AT2G41640 expressed protein: 1.43
  Fold-change AT2G42280 basic helix-loop-helix (bHLH) family protein: 0.41
  Fold-change AT2G43060 expressed protein, similar to cDNA bHLH transcription factor: 0.36
  Fold-change AT2G43280 far-red impaired responsive family protein: 0.51
  Fold-change AT2G43290 calmodulin-like protein (MSS3): 2.99
  Fold-change AT2G44130 kelch repeat-containing F-box family protein: 6.30
  Fold-change AT2G44500 expressed protein: 2.06
  Fold-change AT2G45210 auxin-responsive protein-related: 0.21
  Fold-change AT2G45680 TCP family transcription factor: 0.82
  Fold-change AT2G46225 Encodes a subunit of the WAVE complex: 0.47
  Fold-change AT2G47440 DNAJ heat shock N-terminal domain-containing protein: 2.23
  Fold-change AT3G04210 disease resistance protein (TIR-NBS class), putative,: 1.00
  Fold-change AT3G09920 phosphatidylinositol-4-phosphate 5-kinase family protein: 0.42
  Fold-change AT3G12920 expressed protein: 0.41
  Fold-change AT3G13040 myb family transcription factor: 0.54
  Fold-change AT3G13510 expressed protein: 0.83
  Fold-change AT3G13980 expressed protein: 0.45
  Fold-change AT3G14370 protein kinase family protein: 3.50
  Fold-change AT3G14560 expressed protein: 0.50
  Fold-change AT3G16570 rapid alkalinization factor (RALF) family protein: 0.87
  Fold-change AT3G17860 expressed protein: 0.74
  Fold-change AT3G18830 polyol/cyclitol/monosaccharide-H+-symporte: 1.14
  Fold-change AT3G19380 U-box domain-containing protein: 0.27
  Fold-change AT3G23030 auxin-responsive protein/indoleacetic acid-induced protein 2 (IAA2): 0.39
  Fold-change AT3G23550 MATE efflux family protein: 0.31
  Fold-change AT3G25710 basic helix-loop-helix (bHLH) family protein: 0.53
  Fold-change AT3G25900 homocysteine S-methyltransferase 1 (HMT-1): 2.22
  Fold-change AT3G26910 hydroxyproline-rich glycoprotein family protein: 0.60
  Fold-change AT3G30180 cytochrome p450 enzyme: 0.07
  Fold-change AT3G46880 expressed protein,: 0.60
  Fold-change AT3G47800 aldose 1-epimerase family protein: 0.26
  Fold-change AT3G48970 copper-binding family protein: 0.59
  Fold-change AT3G49810 U-box domain-containing protein: 0.56
  Fold-change AT3G50650 scarecrow-like transcription factor 7 (SCL7): 1.82
  Fold-change AT3G50660 steroid 22-alpha-hydroxylase (CYP90B1) (DWF4): 0.02
  Fold-change AT3G50750 brassinosteroid signalling positive regulator-related (BEH1): 0.35
  Fold-change AT3G52490 heat shock protein-related: 1.08
  Fold-change AT3G53810 lectin protein kinase: 1.19
  Fold-change AT3G54950 patatin-related,: 0.39
  Fold-change AT3G55120 chalcone-flavanone isomerase: 0.68
  Fold-change AT3G55150 exocyst subunit EXO70 family protein: 0.13
  Fold-change AT3G55840 expressed protein: 7.41
  Fold-change AT3G61460 zinc finger (C3HC4-type RING finger) family protein (BRH1): 0.43
  Fold-change AT3G63300 expressed protein: 1.13
  Fold-change AT4G01680 myb family transcription factor (MYB55): 0.14
  Fold-change AT4G02410 lectin protein kinase family protein: 0.59
  Fold-change AT4G08040 1-aminocyclopropane-1-carboxylate synthase, putative: 0.02
  Fold-change AT4G09460 myb family transcription factor: 2.76
  Fold-change AT4G12390 invertase/pectin methylesterase inhibitor family protein: 0.66
  Fold-change AT4G12410 auxin-responsive family protein: 0.44
  Fold-change AT4G14130 xyloglucan:xyloglucosyl transferase: 0.08
  Fold-change AT4G15975 zinc finger (C3HC4-type RING finger) family protein: 1.05
  Fold-change AT4G16146 expressed protein: 0.55
  Fold-change AT4G16563 aspartyl protease family protein: 2.89
  Fold-change AT4G16670 expressed protein: 0.35
